Molecular target: T1, hSFRP-1 (Homo sapiens, UniProt Q8N474)
T1 construct: expressed in transfected cells; host or cells: U2OS osteosarcoma cells (ATCC, HTB 96), transient co-transfection with Wnt 3, Wnt3A or Wnt 1, 16x TCF-tk-Luciferase reporter and CMV-beta-gal
T1 sequence (Q8N474 32-314): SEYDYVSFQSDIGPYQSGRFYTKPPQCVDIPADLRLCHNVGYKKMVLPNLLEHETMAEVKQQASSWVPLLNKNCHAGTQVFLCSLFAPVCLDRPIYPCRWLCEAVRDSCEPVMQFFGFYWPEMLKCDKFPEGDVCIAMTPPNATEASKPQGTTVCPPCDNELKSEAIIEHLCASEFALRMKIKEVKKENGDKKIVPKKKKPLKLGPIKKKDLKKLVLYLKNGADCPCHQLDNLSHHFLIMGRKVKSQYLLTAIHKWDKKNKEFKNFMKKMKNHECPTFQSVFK
Test: Cell-Based Assay for In Vitro Measurement of SFRP-1/SARP2 Antagonist Activity (U2OS cells, 16x TCF-tk-Luciferase reporter, Wnt + hSFRP-1 co-transfection)
Conditions: initial single dose screening at 10 μM; for fold induction at 10 µM: luciferase reporter activity, fold induction over SFRP-1 control; for Ratio: ratio not defined
Procedure: Cell-Based Assay for In Vitro Measurement of SFRP-1/SARP2 Antagonist Activity
The following cell-based assay can be used to identify inhibitors of SFRP-1.
The osteosarcoma cell line, U2OS (ATCC, HTB 96), was passaged twice a week with growth medium (McCoy's SA medium containing 10% (v/v) fetal calf serum, 2 mM GlutaMAX-1, and 1% (v/v) Penicillin-Streptomycin). The cells were maintained in vented flasks at 37° C. inside a 5% CO2/95% humidified air incubator. One day prior to transfection, the cells were plated with growth medium at 25,000 cells/well into 96-well plates and incubated at 37° C. overnight.
The growth medium was removed, and the cells were washed once with OPTIMEM I (Gibco-BRL) medium (100 μl/well) to remove the serum and antibiotics. The wash medium was removed, and the cells were re-fed with OPTI-MEM I medium (100 μl/well). For each well of cells to be transfected, the following DNA's were diluted together in 25 μl OPTI-MEM I medium: 0.1 μg 16× TCF-tk-Luciferase reporter, 0.02 μg Wnt 3, Wnt3A, Wnt 1 or empty vector (Upstate Biotechnology), 0.075 μg hSFRP-1 or empty vector (pcDNA3.1, Invitrogen), and 0.025 μg CMV-®gal (Clonetech). For each well of cells to be transfected, 1 μl of Lipofectamine 2000 reagent (Invitrogen) was diluted in 25 μl OPTI-MEM I medium and incubated at room temperature for 5 minutes. The diluted DNA's were then combined with the diluted Lipofectamine 2000 (LF2000), and the mixture was incubated at room temperature for 20 minutes. Fifty μl of the DNA-LF 2000 mixture was added to each well, and the plate(s) were incubated at 37° C. in a 5% CO2/95% humidified air incubator for 4 hours. The cells were washed once with 150 μl/well of experimental medium (phenol red-free RPMI Medium 1640 containing 2% fetal bovine serum, 2 mM GlutaMAX-1, and 1% Penicillin-Streptomycin). Finally, the cells were treated overnight at 37° C. with 200 μl/well of experimental medium containing either vehicle (typically DMSO) or diluted compound in replicates of 8 wells/compound.
Initial single dose screening of test compounds was done at 10 μM.
Dose-response experiments were initially performed with the compounds in log increases from 1-10,000 nM. From these dose-response curves, EC50 values were generated.
After treatment, the cells were washed twice with 150 μl/well of PBS without calcium or magnesium and were lysed with 50 μl/well of 1× cell culture lysis reagent (Promega Corporation) on a shaker at room temperature for 30 minutes. Thirty μl aliquots of the cell lysates were transferred to 96-well luminometer plates, and luciferase activity was measured in a MicroLumat PLUS luminometer (EG&G Berthold), or a Victor (PerkinElmer Life Sciences) using […] of luciferase substrate (Promega Corporation). Following the injection of substrate, luciferase activity was measured for 10 seconds after a 1.6 second delay. Similarly, 10 μl aliquots of the cell lysates were transferred to separate 96-well luminometer plates, and 50 μl of Galacton chemiluminescent substrate (Tropix) was added to each well. The plates were covered and incubated on a rotary shaker at room temperature for one hour. ®gal activity was measured in a MicroLumat PLUS luminometer or Victor using 100 μl/well of Light Emission Accelerator (Tropix). Following the injection of the accelerator, ®gal activity was measured for 10 seconds after a 1.6 second delay. The luciferase and ®gal activity data were transferred from the luminometer to a PC and analyzed using the SAS/Excel program. After the luciferase activity was normalized to ®gal, the SAS/Excel program was used to determine the mean and standard deviation of each treatment, to analyze the data for statistical significance, and to determine EC50 values.
As an alternative to co-transfection in a 96 well plate, the U2OS cells were transfected in T225 flasks and the transfected cells were frozen. The frozen cells were thawed and plated on a 96 well plate and the assay was carried out as detailed above. […]

Row | Structure (SMILES) | fold induction at 10 µM | Ratio
1 | CCOC(=O)c1c(NC(=O)CC2SC(N)=NC2=O)sc(C)c1C (centres unmarked) [Example 1, Ethyl 2-{[(2-amino-4-oxo-4,5-dihydro-1,3-thiazol-5-yl)acetyl]amino}-4,5-dimethylthiophene-3-carboxylate] | 2.5 | 2.5
2 | N=C1NC(=O)C(CC(=O)Nc2cccc(Br)c2)S1 (centres unmarked) [Example 2, N-(3-bromophenyl)-2-(2-imino-4-oxo-1,3-thiazolidin-5-yl)acetamide] | 2 | 1.8
3 | N=C1NC(=O)C(CC(=O)Nc2cccc(F)c2)S1 (centres unmarked) [Example 3, N-(3-fluorophenyl)-2-(2-imino-4-oxo-1,3-thiazolidin-5-yl)acetamide] | 1.5 | 1.3
4 | N#Cc1cccc(NC(=O)CC2SC(=N)NC2=O)c1 (centres unmarked) [Example 4, N-(3-cyanophenyl)-2-(2-imino-4-oxo-1,3-thiazolidin-5-yl)acetamide] | 1.3 | 1.2
5 | CC(=O)Nc1cccc(NC(=O)CC2SC(=N)NC2=O)c1 (centres unmarked) [Example 5, N-[3-(acetylamino)phenyl]-2-(2-imino-4-oxo-1,3-thiazolidin-5-yl)acetamide] | 1.3 | 1.2
6 | N=C1NC(=O)C(CC(=O)Nc2ccc(Cl)c(Cl)c2)S1 (centres unmarked) [Example 6, N-(3,4-dichlorophenyl)-2-(2-imino-4-oxo-1,3-thiazolidin-5-yl)acetamide] | 1.7 | 1.7
7 | N=C1NC(=O)C(CC(=O)Nc2ccc(Cl)cc2Cl)S1 (centres unmarked) [Example 7, N-(2,4-dichlorophenyl)-2-(2-imino-4-oxo-1,3-thiazolidin-5-yl)acetamide] | 1 | 1.0
8 | N=C1NC(=O)C(CC(=O)Nc2cccc(F)c2F)S1 (centres unmarked) [Example 8, N-(2,3-difluorophenyl)-2-(2-imino-4-oxo-1,3-thiazolidin-5-yl)acetamide] | 1.1 | 1.0
9 | N=C1NC(=O)C(CC(=O)Nc2ccc(F)c(F)c2)S1 (centres unmarked) [Example 9, N-(3,4-difluorophenyl)-2-(2-imino-4-oxo-1,3-thiazolidin-5-yl)acetamide] | 1.6 | 1.5
10 | N=C1NC(=O)C(CC(=O)Nc2cccc(Cl)c2)S1 (centres unmarked) [Example 10, N-(3-chlorophenyl)-2-(2-imino-4-oxo-1,3-thiazolidin-5-yl)acetamide] | 2.2 | 2.2
11 | N=C1NC(=O)C(CC(=O)Nc2ccc(F)c(Cl)c2)S1 (centres unmarked) [Example 11, N-(3-chloro-4-fluorophenyl)-2-(2-imino-4-oxo-1,3-thiazolidin-5-yl)acetamide] | 1.9 | 1.7
12 | N=C1NC(=O)C(CC(=O)NCc2ccc(C(F)(F)F)cc2)S1 (centres unmarked) [Example 12, 2-(2-imino-4-oxo-1,3-thiazolidin-5-yl)-N-[4-(trifluoromethyl)benzyl]acetamide] | 1.1 | 1.0
13 | Cc1cc(NC(=O)CC2SC(=N)NC2=O)on1 (centres unmarked) [Example 13, 2-(2-imino-4-oxo-1,3-thiazolidin-5-yl)-N-(3-methylisoxazol-5-yl)acetamide] | 1 | 1.0
14 | C#Cc1cccc(NC(=O)CC2SC(=N)NC2=O)c1 (centres unmarked) [Example 14, N-(3-ethynylphenyl)-2-(2-imino-4-oxo-1,3-thiazolidin-5-yl)acetamide] | 1.8 | 1.6
15 | CSc1cccc(NC(=O)CC2SC(=N)NC2=O)c1 (centres unmarked) [Example 15, 2-(2-imino-4-oxo-1,3-thiazolidin-5-yl)-N-[3-(methylthio)phenyl]acetamide] | 1.5 | 1.2
16 | CCOC(=O)c1c(C)csc1NC(=O)CC1SC(=N)NC1=O (centres unmarked) [Example 16, ethyl 2-{[(2-imino-4-oxo-1,3-thiazolidin-5-yl)acetyl]amino}-4-methylthiophene-3-carboxylate] | 2 | 1.9
17 | N=C1NC(=O)C(CC(=O)Nc2ccccc2)S1 (centres unmarked) [Example 17, 2-(2-imino-4-oxo-1,3-thiazolidin-5-yl)-N-phenylacetamide] | 1.3 | 1.0
18 | N=C1NC(=O)C(CC(=O)NCc2ccccc2)S1 (centres unmarked) [Example 18, N-benzyl-2-(2-imino-4-oxo-1,3-thiazolidin-5-yl)acetamide] | 1.2 | 1.1
19 | N=C1NC(=O)C(CC(=O)NCc2cccc(C(F)(F)F)c2)S1 (centres unmarked) [Example 19, 2-(2-imino-4-oxo-1,3-thiazolidin-5-yl)-N-[3-(trifluoromethyl)benzyl]acetamide] | 1.1 | 0.9
20 | N=C1NC(=O)C(CC(=O)NCc2ccccc2C(F)(F)F)S1 (centres unmarked) [Example 20, 2-(2-imino-4-oxo-1,3-thiazolidin-5-yl)-N-[2-(trifluoromethyl)benzyl]acetamide] | 1.2 | 1.1
21 | N=C1NC(=O)C(CC(=O)NCc2ccc(Cl)cc2)S1 (centres unmarked) [Example 21, N-(4-chlorobenzyl)-2-(2-imino-4-oxo-1,3-thiazolidin-5-yl)acetamide] | 1.2 | 1.0
22 | N=C1NC(=O)C(CC(=O)NCc2cccc(Cl)c2)S1 (centres unmarked) [Example 22, N-(3-chlorobenzyl)-2-(2-imino-4-oxo-1,3-thiazolidin-5-yl)acetamide] | 1.2 | 1.0
23 | N=C1NC(=O)C(CC(=O)NCc2ccccc2Cl)S1 (centres unmarked) [Example 23, N-(2-chlorobenzyl)-2-(2-imino-4-oxo-1,3-thiazolidin-5-yl)acetamide] | 1.2 | 1.0
24 | N=C1NC(=O)C(CC(=O)Nc2cccc(C(N)=O)c2)S1 (centres unmarked) [Example 24, 3-{[(2-imino-4-oxo-1,3-thiazolidin-5-yl)acetyl]amino}benzamide] | 1.2 | 1.0
25 | CCOC(=O)c1cccc(NC(=O)CC2SC(=N)NC2=O)c1 (centres unmarked) [Example 25, ethyl 3-{[(2-imino-4-oxo-1,3-thiazolidin-5-yl)acetyl]amino}benzoate] | 1.7 | 1.4
26 | N=C1NC(=O)C(CC(=O)Nc2cccc(Oc3ccccc3)c2)S1 (centres unmarked) [Example 26, 2-(2-imino-4-oxo-1,3-thiazolidin-5-yl)-N-(3-phenoxyphenyl)acetamide] | 1.5 | 1.4
27 | N=C1NC(=O)C(CC(=O)Nc2cccc(C(=O)c3ccccc3)c2)S1 (centres unmarked) [Example 27, N-(3-benzoylphenyl)-2-(2-imino-4-oxo-1,3-thiazolidin-5-yl)acetamide] | 1.8 | 1.5
28 | N=C1NC(=O)C(CC(=O)Nc2cccc(Cl)c2Cl)S1 (centres unmarked) [Example 28, N-(2,3-dichlorophenyl)-2-(2-imino-4-oxo-1,3-thiazolidin-5-yl)acetamide] | 1.2 | 1.0

— patent US7563813B2, “Iminothiazolidinone derivatives as SFRP-1 antagonists” (Wyeth, priority 2005, dated 2009)
